# Experimental data as given in patent publication US20180153995A1, “USE OF ANTIMICROBIAL POLYMERS FOR RE-SENSITIZATION OF MICROORGANISMS UPON EMERGENCE OF RESISTANCE TO ANTI-MICROBIAL AGENTS” (Technion Research & Development Foundation Limited, priority 2008, published 2018).
# Like-named read-outs stand apart in the source and are kept apart here.
# Tests used:
# [1] = test system: E. coli K-12 resistant wild type; assay type: cell-based, Escherichia coli; details: E. coli AG100 (w.t.)
# S. maltophila 748 = assay: Antibiotic MIC by microdilution with or without sub-MIC polymer; assay type: cell-based, Stenotrophomonas maltophila
# [2] = test system: E. coli K-12 efflux knockout mutant; assay type: cell-based, Escherichia coli; details: E. coli AG100A (efflux−)
# Experimental: (§1) MICs were determined by microdilution susceptibility testing in 96-well plates (by Nunc) using inocula of 10^5 bacteria per ml. Cell populations were evaluated by optical density measurements at 620 nm and were calibrated against a set of standards. Hundred (100) μl of a bacterial suspension were added to 100 μl of culture medium (control) or to 100 μl of culture medium containing various polymer concentrations in 2-fold serial dilutions. Inhibition of proliferation was determined by optical density measurements at 620 nm after an incubation period of 24 hours at 37° C.
# E. coli 14384 = assay: Antibiotic MIC by microdilution with or without sub-MIC polymer; assay type: cell-based, Escherichia coli; details: E. coli 14384
# Experimental: as §1
# (§2) 100 μl of a bacterial suspension were added to 100 μl of culture medium (control) or to 100 μl of culture medium containing various antibiotic and C14(9-ene)KKNC12KNH2 (SEQ ID NO: 5) concentrations in 2-fold serial dilutions. Inhibition of proliferation was determined by optical density measurements at 620 nm after an incubation period of 24 hours at 37° C.
# S. aureus 15819 = assay: as above; assay type: cell-based, Staphylococcus aureus; details: S. aureus 15819
# S. aureus 17314 = assay: as above; assay type: cell-based, Staphylococcus aureus; details: S. aureus 17314; +½ MIC (3.12 μM) C16(9-ene)KKNC12KNH2
# E. coli 14182 = assay: as above; assay type: cell-based, Escherichia coli; details: polymer at ½ of its MIC
# S. aureus 43300 = assay: as above; assay type: cell-based, Staphylococcus aureus
# MRSA 15903 = assay: microbe, parasite or virus in culture; assay type: cell-based, Staphylococcus aureus
# Experimental: The fractionary inhibitory (FIC) concentration index for combinations of two antimicrobial agents was calculated as follows: FIC index=FICA+FICB=A/MICA+B/MICB where A and B are the MIC values of agent A and agent B in the combination, MICA and MICB are the MICs of agent A and agent B alone, and FICA and FICB are the FICs of agent A and agent B.
# The FIC indexes were interpreted as follows: less than 0.5 indicates a clear re-sensitizing effect; from 0.5 to 4 indicates a marginal or null re-sensitizing effect; and over 4 indicates antagonism.
# Experimental data for FIG. 4 were obtained as follows.
# E. coli 16327 = assay: microbe, parasite or virus in culture; details: for Antibiotic MIC: E. coli 16327
# Experimental: as §1, §2
# [3] = polymer at ¼ of its MIC (Table 16)
# [4] = polymer at ½ of its MIC (Table 16)
# [5] = polymer at ⅓ of its MIC (Table 16)
# [6] = the OAK at ¼ of its MIC (Table 17)
# [7] = the OAK at ½ of its MIC (Table 17)
# [8] = the OAK at ⅓ of its MIC (Table 17)
# [9] = +¼ MIC (1.6 μM) C12K(KNC12K)3NH2
# [10] = +½ MIC (3.12 μM) C12K(KNC12K)3NH2
# [11] = +⅓ MIC (2.1 μM) C12K(KNC12K)3NH2
# [12] = +¼ MIC (1.6 μM) C14(9-ene)KKNC12KNH2
# [13] = +½ MIC (3.12 μM) C14(9-ene)KKNC12KNH2
# [14] = +⅓ MIC (2.1 μM) C14(9-ene)KKNC12KNH2
# [15] = +¼ MIC (1.6 μM) C16(9-ene)KKNC12KNH2
# [16] = +½ MIC (3.12 μM) C16(9-ene)KKNC12KNH2
# [17] = +⅓ MIC (2.1 μM) C16(9-ene)KKNC12KNH2
substance,measurement,setting,value
gentamicin,"Antibiotic MIC, None",[1]; antibiotic alone (Table 16),4 to 8 µg/mL
same,"Antibiotic MIC, None",[1]; antibiotic alone (Table 17),4 to 8 µg/mL
same,"Antibiotic MIC in presence of C12K(NC8K)7NH2 (SEQ ID NO: 4), +¼ MIC",[1]; [3],4 µg/mL
same,"Antibiotic MIC in presence of C12K(NC8K)7NH2 (SEQ ID NO: 4), +½ MIC",[1]; [4],2 µg/mL
same,"Antibiotic MIC in presence of C12K(NC8K)7NH2 (SEQ ID NO: 4), +⅓ MIC",[1]; [5],4 µg/mL
same,"Antibiotic MIC in presence of the OAK, +¼ MIC",[1]; [6],4 µg/mL
same,"Antibiotic MIC in presence of the OAK, +½ MIC",[1]; [7],4 µg/mL
same,"Antibiotic MIC in presence of the OAK, +⅓ MIC",[1]; [8],4 µg/mL
same,Antibiotic MIC,S. maltophila 748; [9],16 µg/mL
same,Antibiotic MIC,S. maltophila 748; [10],8 µg/mL
same,Antibiotic MIC,S. maltophila 748; [11],16 µg/mL
same,Antibiotic MIC,"S. maltophila 748; no polymer (None), Table 13",16 µg/mL
same,"Antibiotic MIC, None",[2]; antibiotic alone (Table 16),4 to 8 µg/mL
same,"Antibiotic MIC, None",[2]; antibiotic alone (Table 17),4 to 8 µg/mL
same,"Antibiotic MIC in presence of C12K(NC8K)7NH2 (SEQ ID NO: 4), +¼ MIC",[2]; [3],4 µg/mL
same,"Antibiotic MIC in presence of C12K(NC8K)7NH2 (SEQ ID NO: 4), +½ MIC",[2]; [4],2 to 4 µg/mL
same,"Antibiotic MIC in presence of C12K(NC8K)7NH2 (SEQ ID NO: 4), +⅓ MIC",[2]; [5],4 µg/mL
same,"Antibiotic MIC in presence of the OAK, +¼ MIC",[2]; [6],4 µg/mL
same,"Antibiotic MIC in presence of the OAK, +½ MIC",[2]; [7],4 µg/mL
same,"Antibiotic MIC in presence of the OAK, +⅓ MIC",[2]; [8],4 µg/mL
same,Antibiotic MIC,E. coli 14384; [12],4 µg/mL
same,Antibiotic MIC,E. coli 14384; [13],2 µg/mL
same,Antibiotic MIC,E. coli 14384; +½ MIC C12K(NC8K)5NH2,1 to 2 µg/mL
same,Antibiotic MIC,E. coli 14384; [14],4 µg/mL
same,"Antibiotic MIC, None",E. coli 14384; antibiotic alone (Table 15),4 µg/mL
same,Antibiotic MIC,"E. coli 14384; no polymer (None), Table 9",4 µg/mL
same,Antibiotic MIC,"E. coli 14384; no polymer (None), Table 14",4 µg/mL
same,"Antibiotic MIC in presence of C12K(NC8K)7NH2 (SEQ ID NO: 4), +¼ MIC",E. coli 14384; polymer at ¼ of its MIC,4 µg/mL
same,"Antibiotic MIC in presence of C12K(NC8K)7NH2 (SEQ ID NO: 4), +½ MIC",E. coli 14384; polymer at ½ of its MIC,2 µg/mL
same,"Antibiotic MIC in presence of C12K(NC8K)7NH2 (SEQ ID NO: 4), +⅓ MIC",E. coli 14384; polymer at ⅓ of its MIC,2 to 4 µg/mL
same,Antibiotic MIC,S. aureus 15819; +¼ MIC (1.6 μM) C12(5-ene)KKNC12KNH2,1 µg/mL
same,Antibiotic MIC,S. aureus 15819; [9],1 µg/mL
same,Antibiotic MIC,S. aureus 15819; +¼ MIC (1.6 μM) C12KKNC12KNH2,1 µg/mL
same,Antibiotic MIC,S. aureus 15819; +½ MIC (3.12 μM) C12(5-ene)KKNC12KNH2,1 µg/mL
same,Antibiotic MIC,S. aureus 15819; [10],0.5 µg/mL
same,Antibiotic MIC,S. aureus 15819; +½ MIC (3.12 μM) C12KKNC12KNH2,1 µg/mL
same,Antibiotic MIC,S. aureus 15819; +⅓ MIC (2.1 μM) C12(5-ene)KKNC12KNH2,1 µg/mL
same,Antibiotic MIC,S. aureus 15819; [11],1 µg/mL
same,Antibiotic MIC,S. aureus 15819; +⅓ MIC (2.1 μM) C12KKNC12KNH2,1 µg/mL
same,Antibiotic MIC,"S. aureus 15819; no polymer (None), Table 8",1 µg/mL
same,Antibiotic MIC,"S. aureus 15819; no polymer (None), Table 11",1 µg/mL
same,Antibiotic MIC,"S. aureus 15819; no polymer (None), Table 13",1 µg/mL
same,Antibiotic MIC,S. aureus 17314,64 µg/mL
same,"Antibiotic MIC in presence of C12K(NC8K)7NH2 (SEQ ID NO: 4), +½ MIC",E. coli 14182,64 to 128 µg/mL
same,Antibiotic MIC,S. aureus 43300; [15],64 µg/mL
same,Antibiotic MIC,S. aureus 43300; [16],32 to 64 µg/mL
same,Antibiotic MIC,S. aureus 43300; [17],64 µg/mL
same,MIC,"MRSA 15903; MRSA 15903, +¼ polymer MIC (1.6 μM) NC12(KNC12K)2NH2",128 µg/mL
same,MIC,"MRSA 15903; MRSA 15903, +½ polymer MIC (3.1 μM) NC12(KNC12K)2NH2",128 µg/mL
same,MIC,"MRSA 15903; MRSA 15903, +⅓ polymer MIC (2.1 μM) NC12(KNC12K)2NH2",128 µg/mL
same,MIC,"MRSA 15903; S. aureus CI-15903, +polymer (½ MIC) C12(5-ene)KKNC12KNH2",128 µg/mL
same,MIC,"MRSA 15903; S. aureus CI-15903, +polymer (⅓ MIC) C12(5-ene)KKNC12KNH2",128 µg/mL
same,Antibiotic MIC,E. coli 16327; +¼ MIC (1.6 μM) C12K(KNC12K)2NH2,8 µg/mL
same,Antibiotic MIC,E. coli 16327; [12],4 µg/mL
same,Antibiotic MIC,E. coli 16327; [15],4 µg/mL
same,Antibiotic MIC,E. coli 16327; +½ MIC (3.12 μM) C12K(KNC12K)2NH2,4 µg/mL
same,Antibiotic MIC,E. coli 16327; [13],2 µg/mL
same,Antibiotic MIC,E. coli 16327; [16],4 µg/mL
same,Antibiotic MIC,E. coli 16327; +⅓ MIC (2.1 μM) C12K(KNC12K)2NH2,8 µg/mL
same,Antibiotic MIC,E. coli 16327; [14],4 µg/mL
same,Antibiotic MIC,E. coli 16327; [17],4 µg/mL
same,Antibiotic MIC,"E. coli 16327; no polymer (None), Table 9",4 µg/mL
same,Antibiotic MIC,"E. coli 16327; no polymer (None), Table 10",4 µg/mL
same,Antibiotic MIC,"E. coli 16327; no polymer (None), Table 12",8 µg/mL
same,"MIC, Alone","E. coli 16327; E. coli U16327, antibiotic alone (Table 22)",4 µg/mL
same,"MIC, ¼ + MIC OAK","E. coli 16327; E. coli U16327, with C12K(KNC10K)3NH2 (SEQ ID NO: 10) at ¼ of its MIC",4 µg/mL
same,"MIC, ½ + MIC OAK","E. coli 16327; E. coli U16327, with C12K(KNC10K)3NH2 (SEQ ID NO: 10) at ½ of its MIC",2 to 4 µg/mL
same,"MIC, ⅓ + MIC OAK","E. coli 16327; E. coli U16327, with C12K(KNC10K)3NH2 (SEQ ID NO: 10) at ⅓ of its MIC",4 µg/mL
same,"Antibiotic MIC, None","E. coli 16327; E. coli U-16327, antibiotic alone (Table 15)",4 µg/mL
same,"Antibiotic MIC in presence of C12K(NC8K)7NH2 (SEQ ID NO: 4), +¼ MIC","E. coli 16327; E. coli U-16327, polymer at ¼ of its MIC",4 µg/mL
same,"Antibiotic MIC in presence of C12K(NC8K)7NH2 (SEQ ID NO: 4), +½ MIC","E. coli 16327; E. coli U-16327, polymer at ½ of its MIC",1 to 2 µg/mL
same,"Antibiotic MIC in presence of C12K(NC8K)7NH2 (SEQ ID NO: 4), +⅓ MIC","E. coli 16327; E. coli U-16327, polymer at ⅓ of its MIC",2 µg/mL
